Measured values from US8188050B2, “Pharmaceutical and/or cosmetic composition containing peptides” (ISP Investments Inc., priority 2006, dated 2012).
Entries after “also recorded” stand apart in the source; their conditions may differ.

System: Biopsies of human skin
Test: Ex vivo study of the effect of the peptide on the synthesis of melanin (Fontana-Masson staining of skin biopsies)
Type: cell-based
Settings: two applications daily, peptide 1% starting with a 50-ppm solution, 48 hours
Description: The aim of this ex vivo study is to highlight the increase in melanization produced by the peptides according to the invention.
Protocol: Biopsies of human skin 6 mm in diameter are held in an ex vivo culture in the presence of a specific medium (1 g/L DMEM, Ham's F-12, SVF, and antibiotics) on inserts deposited on 6-well plates. […] The duration of the treatment is 48 hours. The biopsies are subsequently fixed in 9% formaldehyde and NaCl (150 mM) for 10 hours and then enclosed in paraffin. Thin-sections of the skin 3 μm thick are then made, and the melanin is specifically stained by the Fontana-Masson technique.

Thr-Leu-Leu-Ala (TLLA) [SEQ ID No. 3, peptide fragment of the protein SLC24A5]
Location/distribution of melanin in the epidermis: located in the basal layer but is also transported into the supra-basal layers; also recorded: stimulates the entire process of melanin distribution in the epidermis
Synthesis of melanin by the melanocytes (conclusion): strong increase in the synthesis of melanin
Intensity of melanin coloration of skin thin-sections (Fontana-Masson staining) (vs. untreated sections): coloration of clearly increased intensity
